We go through 31 molecules from PMC7158045 (BMC Plant Biology, 2020).

Structures are written as SMILES.

Common to all, as to assay: biochemical
One assay deals with T1, ZmDRIK1-K217-P492 (Zea mays, UniProt C0P4K9).
T1 construct: kinase domain, K217-P492
T1 sequence (C0P4K9 1-514): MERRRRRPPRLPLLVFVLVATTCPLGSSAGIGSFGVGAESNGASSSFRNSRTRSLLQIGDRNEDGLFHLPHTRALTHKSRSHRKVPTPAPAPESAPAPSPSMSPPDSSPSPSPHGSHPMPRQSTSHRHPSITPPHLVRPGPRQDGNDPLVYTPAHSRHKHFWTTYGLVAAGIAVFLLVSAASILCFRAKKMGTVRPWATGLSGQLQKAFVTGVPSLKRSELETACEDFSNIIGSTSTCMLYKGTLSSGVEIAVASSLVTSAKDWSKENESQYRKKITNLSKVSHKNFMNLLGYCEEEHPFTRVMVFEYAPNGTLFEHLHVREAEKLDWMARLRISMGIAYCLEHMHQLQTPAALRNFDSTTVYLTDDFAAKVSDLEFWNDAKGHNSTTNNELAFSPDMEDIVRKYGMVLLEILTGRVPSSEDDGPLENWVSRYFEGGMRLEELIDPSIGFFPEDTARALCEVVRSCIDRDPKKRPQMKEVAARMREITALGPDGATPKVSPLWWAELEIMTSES
The conditions noted are these: read-out: dTm B, sheet ZmDRIK1-K217-P492;; DSF, Boltzmann fit, 0.1% DMSO.

The target in a further assay is T2, ZmDRIK1-K217-S514 (Zea mays, UniProt C0P4K9).
T2 construct: kinase domain, K217-S514
T2 sequence (C0P4K9 1-514): T1 sequence (C0P4K9 1-514)
The conditions noted are these: read-out: dTm B, sheet ZmDRIK1-K217-S514;; DSF, Boltzmann fit, 0.1% DMSO.

The next assay deals with T3, ZmDRIK1-R187-P492 (Zea mays, UniProt C0P4K9).
T3 construct: kinase domain, R187-P492
T3 sequence (C0P4K9 1-514): T1 sequence (C0P4K9 1-514)
The conditions noted are these: read-out: dTm B, DSF, Boltzmann fit, 0.1% DMSO.

The target of assay [1] is T4, ZmDRIK1 (DROUGHT RESPONSIVE INACTIVE KINASE 1), kinase domain (Zea mays, UniProt C0P4K9).
T4 construct: gene ZEAMMB73_Zm00001d028770; ZmDRIK1-KD R187-S514 (kinase domain)
T4 sequence (C0P4K9 187-514): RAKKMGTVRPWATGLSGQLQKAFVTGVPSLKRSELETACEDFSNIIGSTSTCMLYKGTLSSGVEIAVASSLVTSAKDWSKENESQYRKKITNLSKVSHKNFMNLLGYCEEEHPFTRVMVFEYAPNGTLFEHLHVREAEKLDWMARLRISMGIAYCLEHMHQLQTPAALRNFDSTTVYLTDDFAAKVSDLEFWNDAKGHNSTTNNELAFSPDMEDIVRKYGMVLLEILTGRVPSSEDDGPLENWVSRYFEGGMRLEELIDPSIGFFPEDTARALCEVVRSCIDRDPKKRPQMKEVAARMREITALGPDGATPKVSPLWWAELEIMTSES
The conditions noted are these: read-out: dTm B, sheet ZmDRIK1-R187-S514;; DSF, Boltzmann fit, 0.1% DMSO.

For `CCN(CC)CCCC(C)Nc1nc(C)cc(Nc2ccc3nc(C)cc(N)c3c2)n1` (stereo not shown) [NSC 23766], the ΔTm at 10 µM at ZmDRIK1-K217-P492 was -0.485 °C; on ZmDRIK1-K217-S514, -0.555 °C; on ZmDRIK1-R187-P492, -0.128 °C; in assay [1], -0.461 °C.
Turning to `O=C1NC(=O)C(=Cc2ccc(-c3ccc(F)cc3)o2)S1` (stereo in doubt) [CAY10505], the ΔTm at 10 µM on ZmDRIK1-K217-P492 was -0.834 °C; at ZmDRIK1-K217-S514 it was -0.62 °C; on ZmDRIK1-R187-P492, -0.47 °C; in assay [1] it was -0.534 °C.
For `Cc1[nH]c(/C=C2\C(=O)Nc3ccc(S(=O)(=O)Cc4c(Cl)cccc4Cl)cc32)c(C)c1C(=O)N1CCC[C@@H]1CN1CCCC1` [PHA-665752], in that order: -1.25 °C, -0.843 °C, -0.648 °C and -0.988 °C.
For the molecule `CCc1cccc(CC)c1NC(=O)N1Cc2[nH]nc(NC(=O)c3ccc(N4CCN(C)CC4)cc3)c2C1` [PHA-680632], the ΔTm at 10 µM is -0.924 °C at ZmDRIK1-K217-P492, -0.247 °C at ZmDRIK1-K217-S514, -0.18 °C at ZmDRIK1-R187-P492 and -0.776 °C in assay [1].
In the case of `CN1CCN(c2nc(C3=C(c4c[nH]c5ccccc45)C(=O)NC3=O)c3ccccc3n2)CC1` [Sotrastaurin], the ΔTm at 10 µM was -0.642 °C at ZmDRIK1-K217-P492, -0.412 °C on ZmDRIK1-K217-S514, -0.608 °C on ZmDRIK1-R187-P492 and -0.541 °C in assay [1].
Regarding `Cc1ccc(-c2nn(C(C)(C)C)c3ncnc(N)c23)cc1` [PP1], the ΔTm at 10 µM at ZmDRIK1-K217-P492 is -1.01 °C; at ZmDRIK1-K217-S514, -0.253 °C; on ZmDRIK1-R187-P492 it was -0.136 °C; in assay [1] it was -0.972 °C.
For `Cc1ccc(C(=O)Nc2ccc(CN3CCN(C)CC3)c(C(F)(F)F)c2)cc1C#Cc1cnc2cccnn12` [Ponatinib (AP24534)], in that order: -0.505 °C, -0.482 °C, -0.39 °C and -0.951 °C.
For the molecule `CN(C)c1ccc(-c2nc3ncc(Cl)c(N4CCN(CC(=O)Nc5nccs5)CC4)c3[nH]2)cc1` [CCT129202], the ΔTm at 10 µM was -0.83 °C on ZmDRIK1-K217-P492, -0.39 °C on ZmDRIK1-K217-S514, -0.353 °C at ZmDRIK1-R187-P492 and -1.56 °C in assay [1].
Turning to `COC(=O)Nc1ccc(-c2nc(N3CCOCC3)c3cnn(C4CCN(C(=O)OC)CC4)c3n2)cc1` [WYE-354], the ΔTm at 10 µM was -1.11 °C at ZmDRIK1-K217-P492, -0.255 °C at ZmDRIK1-K217-S514, 0.97 °C at ZmDRIK1-R187-P492 and -0.687 °C in assay [1].
For `O=c1ncn2nc(Sc3ccc(F)cc3F)ccc2c1-c1c(Cl)cccc1Cl` [VX-745], in that order: -1.03 °C, -0.414 °C, -0.394 °C and -0.881 °C.
Take `COc1cccc2cc(-c3nc([C@H]4CC[C@H](C(=O)O)CC4)n4ncnc(N)c34)[nH]c12` [OSI-027]: the ΔTm at 10 µM at ZmDRIK1-K217-P492 is -1.03 °C; on ZmDRIK1-K217-S514 it was -0.417 °C; at ZmDRIK1-R187-P492, -0.418 °C; in assay [1], -0.416 °C.
On to `Cc1nc(Nc2ncc(C(=O)Nc3c(C)cccc3Cl)s2)cc(N2CCN(CCO)CC2)n1` [Dasatinib], for which the ΔTm at 10 µM is -1.24 °C on ZmDRIK1-K217-P492, -0.388 °C at ZmDRIK1-K217-S514, -0.493 °C at ZmDRIK1-R187-P492 and -0.74 °C in assay [1].
For `COc1ccc(S(=O)(=O)N(CCO)c2ccccc2CN(C)C/C=C/c2ccc(Cl)cc2)cc1` [KN-93 Phosphate], in that order: -4.4 °C, -0.811 °C, -1.06 °C and -0.375 °C.
For `CCn1c(N)c(C(=O)NC)c(=O)c2ccc(C#C[C@@](C)(O)COC)nc21` [SAR131675], in that order: -0.827 °C, -0.272 °C, -0.181 °C and -0.688 °C.
For `Cc1cnc(Nc2ccc(OCCN3CCCC3)cc2)nc1Nc1cccc(S(=O)(=O)NC(C)(C)C)c1` [TG101348 (SAR302503)] the same measures were -0.974 °C, -0.238 °C, -0.567 °C and -0.804 °C.
Consider `Cn1cnc(N)c2ncnc1-2` [3-Methyladenine], for which the ΔTm at 10 µM is -0.621 °C at ZmDRIK1-K217-P492, -0.375 °C on ZmDRIK1-K217-S514, -0.274 °C on ZmDRIK1-R187-P492 and -0.528 °C in assay [1].
For `O=C1NCCc2[nH]c(-c3ccncc3)cc21` [PHA-767491], in that order: -0.984 °C, -0.125 °C, -0.213 °C and -0.701 °C.
Consider `C=CCc1ccc(O)c(-c2ccc(O)c(CC=C)c2)c1` [Honokiol], for which the ΔTm at 10 µM is -1.49 °C at ZmDRIK1-K217-P492, -0.593 °C on ZmDRIK1-K217-S514, -0.457 °C at ZmDRIK1-R187-P492 and -0.751 °C in assay [1].
For `C=CC(=O)Nc1cccc(Sc2nc(Nc3ccc(N4CCN(C)CC4)cc3)ncc2Cl)c1` [WZ8040], the ΔTm at 10 µM at ZmDRIK1-K217-P492 is -0.667 °C; at ZmDRIK1-K217-S514, -0.291 °C; at ZmDRIK1-R187-P492, -0.275 °C; in assay [1], -0.927 °C.
As to `O=C(c1ccc(/C=C/c2n[nH]c3ccccc23)cc1)N1CCNCC1` [KW-2449], the ΔTm at 10 µM on ZmDRIK1-K217-P492 was -0.672 °C; on ZmDRIK1-K217-S514, -0.13 °C; at ZmDRIK1-R187-P492 it was -0.0311 °C; in assay [1], -0.807 °C.
Turning to `O=C(NOCC(O)CO)c1cc(Br)c(F)c(F)c1Nc1ccc(I)cc1F` (stereo not shown) [PD318088], the ΔTm at 10 µM was -1.33 °C on ZmDRIK1-K217-P492, -0.114 °C on ZmDRIK1-K217-S514, 0.042 °C at ZmDRIK1-R187-P492 and -0.924 °C in assay [1].
In the case of `COc1cc2ncnc(Nc3ccc(O)c(Br)c3)c2cc1OC` [WHI-P154], the ΔTm at 10 µM at ZmDRIK1-K217-P492 was found to be 0.694 °C; on ZmDRIK1-K217-S514, 2.03 °C; on ZmDRIK1-R187-P492, 1.76 °C; in assay [1], 0.428 °C.
For `O=C1NC(=O)/C(=C/c2ccc3c(c2)OC(F)(F)O3)S1` [AS-604850] the same measures were -0.999 °C, -0.526 °C, -0.284 °C and -0.905 °C.
For `Cc1cc(Nc2nc(N[C@@H](C)c3ncc(F)cn3)ncc2Cl)[nH]n1` [AZD1480], the ΔTm at 10 µM on ZmDRIK1-K217-P492 is -0.856 °C; at ZmDRIK1-K217-S514, -0.215 °C; at ZmDRIK1-R187-P492, -0.161 °C; in assay [1] it was -0.906 °C.
For the molecule `Cc1ccc2nc(NCCN)c3ncc(C)n3c2c1` [BMS-345541], the ΔTm at 10 µM on ZmDRIK1-K217-P492 was -0.0998 °C; on ZmDRIK1-K217-S514, -0.486 °C; at ZmDRIK1-R187-P492 it was -0.153 °C; in assay [1] it was -0.926 °C.
Take `Cc1cc(NC(=O)c2cccc(NC(=O)/C=C/CN(C)C)c2)ccc1Nc1nccc(-c2cccnc2)n1` [JNK-IN-8]: the ΔTm at 10 µM at ZmDRIK1-K217-P492 is -1.16 °C; on ZmDRIK1-K217-S514 it was -0.306 °C; on ZmDRIK1-R187-P492 it was -0.326 °C; in assay [1], -0.726 °C.
Consider `COc1ccc(CNC(=O)Nc2ncc([N+](=O)[O-])s2)cc1` [AR-A014418], for which the ΔTm at 10 µM on ZmDRIK1-K217-P492 was -0.984 °C; at ZmDRIK1-K217-S514, -0.49 °C; on ZmDRIK1-R187-P492, -0.199 °C; in assay [1], -1.03 °C.
For the molecule `O=C(NCCCNc1nc(Nc2cccc(NC(=O)N3CCCC3)c2)ncc1I)c1cccs1` [BX-795], the ΔTm at 10 µM on ZmDRIK1-K217-P492 is -1.46 °C; on ZmDRIK1-K217-S514 it was -1.39 °C; at ZmDRIK1-R187-P492, -1.23 °C; in assay [1] it was -0.711 °C.
For `NCC(=O)Nc1ccc(-n2nc(C(F)(F)F)cc2-c2ccc3c(ccc4ccccc43)c2)cc1` [OSU-03012 (AR-12)], in that order: -8.69 °C, 0.388 °C, -1.36 °C and -0.382 °C.
Regarding `CNC(=O)c1cc(COc2nnc(Nc3ccc(Cl)cc3)c3ccoc23)ccn1` [Telatinib], the ΔTm at 10 µM at ZmDRIK1-K217-P492 is -0.739 °C; at ZmDRIK1-K217-S514, -0.252 °C; on ZmDRIK1-R187-P492, -0.226 °C; in assay [1], -0.862 °C.
For `CN(C)CCOc1ccc(-c2nc(-c3ccncc3)c(-c3ccc4c(c3)CC/C4=N\O)[nH]2)cc1` [SB590885], in that order: -0.936 °C, -0.286 °C, -0.167 °C and -0.734 °C.
